Laboratory results: patent US20240207285A1 (Melt Pharmaceuticals, Inc., priority 2022, published 2024)

Key:
healthy adult subjects [1] = assay: Phase 1 sedation level by Ramsay sedation scale (RSS); assay type: in vivo, human
Protocol: (§1) Pharmacodynamic parameters included sedation, defined as time to onset of sedation and sedation level, assessed using the Ramsay sedation scale (RSS), and cardiodynamics assessed by QTcF, heart rate, and PR and QRS intervals, and T-wave morphology and U-wave presence, extracted from ECGs collected via Holter monitor from predose through 24 hours postdose.
All pharmacodynamic analyses were performed on data from the Safety Population. The RSS scores were summarized by treatment and by timepoint. Time to onset of sedation was summarized by treatment and presented graphically.

[2] = Phase 1 relative bioavailability study: plasma pharmacokinetics of midazolam, 1-hydroxymidazolam, ketamine and norketamine
Protocol: PK analysis was performed using noncompartmental methods in Phoenix WinNonlin® (Version 8.1, Certara, L.P.) in conjunction with the internet-accessible implementation of the Pharsight® Knowledgebase Server™ (PKSO; Version 4.0.4, Certara, L.P). PKSO provides protected and structured storage, audit trails, and version control for study data, analyses, and related files, supporting 21 CFR Part 11 compliance. The analysis was performed in accordance with the Statistical Analysis Plan (Version 1.0, 5 Jan. 2021).
During the PK analysis, concentrations below the limit of quantitation (BLQ) up to the time of the first quantifiable concentration were treated as zero. Embedded (values between 2 quantifiable concentrations) and terminal BLQ concentrations were treated as “missing”. Calculation of the PK characteristics were based on actual elapsed times [h] (relative to time of dose).
All PK analyses were performed on the data from the PK Analysis Population. […] The ANOVA model included factors for sequence, subject within sequence, treatment, and period.

healthy adult subjects [3] = assay: Phase 1 vital signs and pulse oximetry; assay type: in vivo, human; details: for Mean changes from baseline in systolic and diastolic blood pressures: MELT-100 3/25 mg and 6/25 mg (so in the source), midazolam 3.5 mg IV, ketamine 18 mg IV, each timepoint
Excerpt: (§2) The Investigator evaluated safety using physical and oral examinations, O2 saturation (SpO2), vital sign measurements, clinical laboratory evaluations, electrocardiograms (ECGs), reported or observed adverse events (AEs), and assessments of neurocognitive function. Subjects were monitored for any AEs from the first dose through the end of the study.
(§3) Vital signs, clinical laboratory values (hematology, serum chemistry, and urinalysis), and 12-lead ECG parameters were summarized by treatment including any abnormal values flagged.

healthy adult subjects [4] = assay: Phase 1 adverse events; assay type: in vivo, human
Excerpt: as §2
Adverse events were coded using the Medical Dictionary for Regulatory Activities (MedDRA, version 22.0, or later) terms and summarized by system organ class (SOC) and preferred term (PT) within SOC. The number and percentage of subjects reporting TEAEs were summarized by reported SOC and PT for each treatment and the population overall. TEAEs were also summarized by maximum severity and nearest relationship to study drug, by SOC and PT for each treatment.
A by-subject AE (including treatment-emergent) data listing, including but not limited to verbatim term, SOC, PT, severity, and relationship to study treatment, was provided. Deaths, SAEs, and other significant AEs, including those leading to early termination of study treatments were listed.

healthy adult subjects [5] = assay: Phase 1 electrocardiograms / cardiodynamics; assay type: in vivo, human; details: one subject, 24 hours after midazolam 3.5 mg IV; not considered clinically significant
Protocol: as §1
An analysis of categorical outliers was performed for changes in heart rate; PR, QRS, and QTcF intervals; T-wave morphology; and U-wave presence.
as §3

[6] = 5 minutes after ketamine 18 mg IV
[7] = Treatment D: ketamine 18 mg IV, mean
[8] = Treatment C: midazolam 3.5 mg IV, mean

In the case of `CNC1(c2ccccc2Cl)CCCCC1=O` (centres unmarked) [Ketamine, 2-(2-chlorophenyl)-2-(methylamino)cyclohexanone], the “Subjects with RSS score of 1” value (healthy adult subjects [1]; [6]) is reported as 1 (4.0%) subjects (%), the “Subjects with RSS score of 5” value (healthy adult subjects [1]; [6]) is reported as 1 (4.0%) subjects (%) and the “Highest proportion of subjects with RSS scores >2 postdose” value (healthy adult subjects [1]; ketamine 18 mg IV) is reported as about 8%. The “AUCExtrap, ketamine” value [2, 7] was 9.64%, the “CL, ketamine” value [2, 7] was 59.9 L/h and the “Clast, ketamine” value [2, 7] was 1.99 ng/mL. It also gave a half-life ([2]; human, plasma, iv, 18 mg) of 618 min, an AUC(0-t) ([2]; human, plasma, iv, 18 mg, AUC0-t, ketamine, Treatment D: ketamine 18 mg IV, mean) of 283 ng·h/mL and an AUC(0-inf) ([2]; human, plasma, iv, 18 mg, AUCinf, ketamine, Treatment D: ketamine 18 mg IV, mean) of 316 ng·h/mL. It also gave a Cmax ([2]; human, plasma, iv, 18 mg, Cmax, ketamine, Treatment D: ketamine 18 mg IV, mean) of 250 ng/mL, an AUC(0-t) ([2]; human, plasma, iv, 18 mg, GeoMean AUC0-t, ketamine, Ref (D) ketamine 18 mg IV, least squares geometric mean) of 277 ng·h/mL and an AUC(0-inf) ([2]; human, plasma, iv, 18 mg, GeoMean AUCinf, ketamine, Ref (D) ketamine 18 mg IV, least squares geometric mean) of 307 ng·h/mL. For the same molecule, the Cmax ([2]; human, plasma, iv, 18 mg, GeoMean Cmax, ketamine, Ref (D) ketamine 18 mg IV, least squares geometric mean) was 208 ng/mL, the Tmax ([2]; human, plasma, iv, 18 mg, Tmax, ketamine, Treatment D: ketamine 18 mg IV, median (range)) was 10 min and the “Mean changes from baseline in systolic and diastolic blood pressures” value (healthy adult subjects [3]) was “highest at the 10-minute timepoint”. The “Treatment-related AEs of hypertension” value (healthy adult subjects [4]; ketamine 18 mg IV) was 3 AEs.
In the case of `Cc1ncc2n1-c1ccc(Cl)cc1C(c1ccccc1F)=NC2` [Midazolam, 8-chloro-6-(2-fluorophenyl)-1-methyl-4H-imidazo[1,5-a][1,4]benzodiazepine], the “Subjects with RSS scores of 3” value (healthy adult subjects [1]; 5 minutes after midazolam 3.5 mg IV) is reported as 2 (8.3%) subjects (%), the “Highest proportion of subjects with RSS scores >2 postdose” value (healthy adult subjects [1]; midazolam 3.5 mg IV) is reported as about 54% and the “AUCExtrap, midazolam” value [2, 8] is reported as 5.58%. The “Clast, midazolam” value [2, 8] was 0.963 ng/mL, the Vd ([2]; human, plasma, iv, 3.5 mg) was 202 L and the clearance ([2]; human, plasma, iv, 3.5 mg) was 348 mL/min. It also gave a half-life ([2]; human, plasma, iv, 3.5 mg) of 420 min, an AUC(0-t) ([2]; human, plasma, iv, 3.5 mg, AUC0-t, midazolam, Treatment C: midazolam 3.5 mg IV, mean) of 168 ng·h/mL and an AUC(0-inf) ([2]; human, plasma, iv, 3.5 mg, AUCinf, midazolam, Treatment C: midazolam 3.5 mg IV, mean) of 179 ng·h/mL. For the same molecule, the Cmax ([2]; human, plasma, iv, 3.5 mg, Cmax, midazolam, Treatment C: midazolam 3.5 mg IV, mean) was 146 ng/mL, the AUC(0-t) ([2]; human, plasma, iv, 3.5 mg, GeoMean AUC0-t, midazolam, Ref (C) midazolam 3.5 mg IV, least squares geometric mean) was 164 ng·h/mL and the AUC(0-inf) ([2]; human, plasma, iv, 3.5 mg, GeoMean AUCinf, midazolam, Ref (C) midazolam 3.5 mg IV, least squares geometric mean) was 174 ng·h/mL. It also gave a Cmax ([2]; human, plasma, iv, 3.5 mg, GeoMean Cmax, midazolam, Ref (C) midazolam 3.5 mg IV, least squares geometric mean) of 127 ng/mL, a Tmax ([2]; human, plasma, iv, 3.5 mg, Median Tmax, midazolam, Treatment C: midazolam 3.5 mg IV) of 11 min and a Tmax ([2]; human, plasma, iv, 3.5 mg, Tmax, midazolam, Treatment C: midazolam 3.5 mg IV, median (range)) of 11 min. The “Mean changes from baseline in systolic and diastolic blood pressures” value (healthy adult subjects [3]) was “minimal and similar”, the “Mean change from baseline in pulse oximetry” value (healthy adult subjects [3]; midazolam 3.5 mg IV at 10 minutes postdose, MELT-100 6/50 mg at 30 minutes postdose, minimal at 2 hours) was “small mean decrease from baseline” and the PR duration (healthy adult subjects [5]) was “abnormal”. The “Number of treatment-related AEs” value (healthy adult subjects [4]; midazolam 3.5 mg IV) was 2 events.
